The values that follow come from patent publication US20130053381A1, “2,4-DIOXO-1,4-DIHYDRO-2H-QUINAZOLIN-3-YL-SULFONAMIDE DERIVATIVES” (NOVARTIS AG, priority 2010, published 2013).

One assay concerns the target AMPA receptor. As to the kind of experiment: [3H]CNQX binding test (AMPA-receptor binding). More on the design: species or system rat. As to conditions: Table 1A parent compounds; AMPA-receptor binding as described for Table 2; read-out: IC50. The protocol: CNQX binding test (Honore et al. Biochem. Pharmacol. 1989, 38: 3207-3212). This test is performed as follows.
Brain membranes: The animals are sacrificed, the brain removed and homogenized in 10 volumes of ice-cold 10% sucrose with a glass/Teflon homogenizer at positions 5 for 30 sec. The membranes are centrifuged at 1000×g for 10 min, and the supernatant centrifuged at 20,000×g for 15 min. The resulting pellet is resuspended in 10 volumes of cold water with a tissue homogenizer (Brinkman Polytron) at position 5 for 15 sec and the suspension centrifuged at 8000×g for 10 min. The supernatant including the buffy layer is centrifuged at 40,000×g for 20 min, the pellet resuspended in 5 volumes of water and the suspension frozen (20-30 min in dry ice/MeOH) and thawed (water-bath at 37° C.) twice. The suspension is centrifuged at 40,000×g for 20 min, the pellet resuspended in 50 mM HEPES/KOH, pH 7.5, and centrifuged at 40,000×g for 10 min. The final pellet is resuspended with a glass/Teflon homogenizer in 5 volumes of HEPES/KOH buffer; 2 mL aliquots are frozen and stored in liquid nitrogen.
Pretreatment of membranes: Membranes are thawed at 35° C. and once washed with 50 mM HEPES/KOH by centrifugation at 39,000×g for 10 min. The final pellet is resuspended with a glass/Teflon homogenizer in the same buffer.
Radioligand binding assay: It is performed using 96-well microtiterplates in a volume of 0.3 mL of 50 mM HEPES/KOH, pH 7.2, 100 μg membrane protein, 5 nM [^3H]-CNQX (NEN) and the compound to be tested. Incubation is performed at 4° C. for 40 min and the reaction is terminated by centrifugation (Sigma 4K10) at 3700×g for 30 min. The pellet is washed once with cold buffer and then dissolved in 0.02 mL of the tissue solubilizer Soluene for 20 min. Two hundred μL of the scintillation fluid Microscint 20 (Packard) are added and the radioactivity is counted in a Packard Topcount scintillation counter at an efficiency of 40-45%. Nonspecific binding is defined by 10 μM CNQX. Assays are performed in triplicate.

The next assay has as its system OF1 mice. Nature of the assay: Maximal electroshock test (MES Test). The class given is in vivo. The note with it: Mus musculus; dose of up to 50 mg/kg, p.o., 1 hour prior to induction of convulsions; read-out: %-Protection. The essentials: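 Compound given p.o. (typically 50 mg/kg) 1 h before tonic-clonic convulsions were induced via temporal electrodes (50 Hz, 18 mA, 0.2 s); seizure lasting 3 s or less counted as protection. Read-out is percent protected of five mice per condition; ED50 calculated, blood exposure sampled after shock.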
(Protection in the maximal electroshock model is a classic sign of anticonvulsant action.)

In general, IC50 refers to the concentration that gives 50% inhibition. As for `COC(C)c1cc2c(=O)n(NS(C)(=O)=O)c(=O)[nH]c2cc1C(F)(F)F` (stereo not shown) [Example 16.0], the IC50 at AMPA receptor was found to be 390 nM.

For the compound `CCOC(C)c1cc2c(=O)n(NS(C)(=O)=O)c(=O)[nH]c2cc1C(F)(F)F` (stereo not shown) [Example 17.0], the IC50 on AMPA receptor is 350 nM.

For the compound `CC(C)OC(C)c1cc2c(=O)n(NS(C)(=O)=O)c(=O)[nH]c2cc1C(F)(F)F` (stereo not shown) [Example 18.0], the IC50 on AMPA receptor is 320 nM.

For the compound `CCCOC(CC)c1cc2c(=O)n(NS(C)(=O)=O)c(=O)[nH]c2cc1C(F)(F)F` (stereo not shown) [Example 19.0], the IC50 at AMPA receptor came to 520 nM.

For `CCC(OC(C)C)c1cc2c(=O)n(NS(C)(=O)=O)c(=O)[nH]c2cc1C(F)(F)F` (stereo not shown) [Example 20.0], the IC50 on AMPA receptor was 380 nM.

As to `CCOC(C)c1cc2c(=O)n(NS(C)(=O)=O)c(=O)[nH]c2cc1C(F)F` (stereo not shown) [Example 21.0], the IC50 at AMPA receptor was found to be 900 nM.

As to `CCCOC(C)c1cc2c(=O)n(NS(C)(=O)=O)c(=O)[nH]c2cc1C(F)(F)F` (stereo not shown) [Example 22.0], at AMPA receptor, the IC50 was found to be 980 nM.

For the compound `CCCCOC(C)c1cc2c(=O)n(NS(C)(=O)=O)c(=O)[nH]c2cc1C(F)(F)F` (stereo not shown) [Example 23.0], the IC50 at AMPA receptor came out at 760 nM.

With `CC(C)COC(C)c1cc2c(=O)n(NS(C)(=O)=O)c(=O)[nH]c2cc1C(F)(F)F` (stereo not shown) [Example 24.0], the half-maximal inhibitory concentration (IC50) on AMPA receptor was determined as 1810 nM.

Turning to `CC(OC1CCCC1)c1cc2c(=O)n(NS(C)(=O)=O)c(=O)[nH]c2cc1C(F)(F)F` (stereo not shown) [Example 25.0], the concentration for half-maximal inhibition (IC50) on AMPA receptor was found to be 540 nM.

In the case of `CCOC(CC)c1cc2c(=O)n(NS(C)(=O)=O)c(=O)[nH]c2cc1C(F)(F)F` (stereo not shown) [Example 26.0], the IC50 on AMPA receptor is 510 nM.

Regarding `CCCC(=O)N(n1c(=O)[nH]c2cc(CC)c(-c3ccnn3CC)cc2c1=O)S(C)(=O)=O` [N-Butyryl-N-[7-ethyl-6-(2-ethyl-2H-pyrazol-3-yl)-2,4-dioxo-1,4-dihydro-2H-quinazolin-3-yl]-methanesulfonamide], the responders at 50 mg/kg in the assay on OF1 mice came out at 0%.

On to `CCn1nccc1-c1cc2c(=O)n(N(C(=O)CCSC)S(C)(=O)=O)c(=O)[nH]c2cc1C(F)(F)F` [N-[6-(2-Ethyl-2H-pyrazol-3-yl)-2,4-dioxo-7-trifluoromethyl-1,4-dihydro-2H-quinazolin-3-yl]-N-(3-methylsulfanyl-propionyl)-methanesulfonamide], for which the responders at 50 mg/kg in the assay on OF1 mice was determined as 0%.

Consider `CCCCC(=O)N(n1c(=O)[nH]c2cc(C(F)(F)F)c(-c3ccnn3CC)cc2c1=O)S(C)(=O)=O` [N-[6-(2-Ethyl-2H-pyrazol-3-yl)-2,4-dioxo-7-trifluoromethyl-1,4-dihydro-2H-quinazolin-3-yl]-N-pentanoyl-methanesulfonamide], for which the responders at 50 mg/kg with OF1 mice came to 0%.

In the case of `CCCCC(=O)N(n1c(=O)[nH]c2cc(C(F)(F)F)c(-c3ccnn3C(C)C)cc2c1=O)S(C)(=O)=O` [N-[6-(2-Isopropyl-2H-pyrazol-3-yl)-2,4-dioxo-7-trifluoromethyl-1,4-dihydro-2H-quinazolin-3-yl]-N-pentanoyl-methanesulfonamide], in the assay on OF1 mice, the responders at 50 mg/kg was 0%.

As to `CCn1nccc1-c1cc2c(=O)n(N(C(=O)C(C)(C)C)S(C)(=O)=O)c(=O)[nH]c2cc1C(F)F` [N-[7-Difluoromethyl-6-(2-ethyl-2H-pyrazol-3-yl)-2,4-dioxo-1,4-dihydro-2H-quinazolin-3-yl]-N-(2,2-dimethyl-propionyl)-methanesulfonamide], the responders at 50 mg/kg with OF1 mice worked out at 0%.

On to `CCn1nccc1-c1cc2c(=O)n(N(C(=O)CCSC)S(C)(=O)=O)c(=O)[nH]c2cc1C(F)F` [N-[7-Difluoromethyl-6-(2-ethyl-2H-pyrazol-3-yl)-2,4-dioxo-1,4-dihydro-2H-quinazolin-3-yl]-N-(3-methylsulfanyl-propionyl)-methanesulfonamide], for which the responders at 50 mg/kg in the assay on OF1 mice was 0%.

In the case of `CCCCC(=O)N(n1c(=O)[nH]c2cc(C(F)F)c(-c3ccnn3CC)cc2c1=O)S(C)(=O)=O` [N-[7-Difluoromethyl-6-(2-ethyl-2H-pyrazol-3-yl)-2,4-dioxo-1,4-dihydro-2H-quinazolin-3-yl]-N-pentanoyl-methanesulfonamide], the responders at 50 mg/kg in the assay with OF1 mice was found to be 0%.

For `CCC(=O)N(n1c(=O)[nH]c2cc(C(F)F)c(-c3ccnn3CC)cc2c1=O)S(C)(=O)=O` [N-[7-Difluoromethyl-6-(2-ethyl-2H-pyrazol-3-yl)-2,4-dioxo-1,4-dihydro-2H-quinazolin-3-yl]-N-propionyl-methanesulfonamide], the responders at 50 mg/kg with OF1 mice was determined as 0%.

For the compound `CCCCCC(=O)N(n1c(=O)[nH]c2cc(C(F)F)c(-c3ccnn3C(C)C)cc2c1=O)S(C)(=O)=O` [N-[7-Difluoromethyl-6-(2-isopropyl-2H-pyrazol-3-yl)-2,4-dioxo-1,4-dihydro-2H-quinazolin-3-yl]-N-hexanoyl-methanesulfonamide], the responders at 50 mg/kg in the assay on OF1 mice was determined as 0%.

On to `CC(C)C(=O)N(n1c(=O)[nH]c2cc(C(F)F)c(-c3ccnn3C(C)C)cc2c1=O)S(C)(=O)=O` [N-[7-Difluoromethyl-6-(2-isopropyl-2H-pyrazol-3-yl)-2,4-dioxo-1,4-dihydro-2H-quinazolin-3-yl]-N-isobutyryl-methanesulfonamide], for which, in the assay with OF1 mice, the responders at 50 mg/kg was found to be 0%.

Turning to `CCc1cc2[nH]c(=O)n(N(C(=O)C(C)C)S(C)(=O)=O)c(=O)c2cc1-c1ccnn1CC` [N-[7-Ethyl-6-(2-ethyl-2H-pyrazol-3-yl)-2,4-dioxo-1,4-dihydro-2H-quinazolin-3-yl]-N-isobutyryl-methanesulfonamide], the responders at 50 mg/kg in the assay with OF1 mice came out at 0%.

For `CCc1cc2[nH]c(=O)n(N(C(=O)C(C)C)S(C)(=O)=O)c(=O)c2cc1-c1ccnn1C` [N-[7-Ethyl-6-(2-methyl-2H-pyrazol-3-yl)-2,4-dioxo-1,4-dihydro-2H-quinazolin-3-yl]-N-isobutyryl-methanesulfonamide], the responders at 50 mg/kg in the assay with OF1 mice came out at 0%.

Take `CC(C)CC(=O)N(n1c(=O)[nH]c2cc(C(C)C)c(-c3ccnn3C)cc2c1=O)S(C)(=O)=O` [N-[7-Isopropyl-6-(2-methyl-2H-pyrazol-3-yl)-2,4-dioxo-1,4-dihydro-2H-quinazolin-3-yl]-N-(3-methyl-butyryl)-methanesulfonamide]: the responders at 50 mg/kg with OF1 mice was 0%.

With `CC(C)C(=O)N(n1c(=O)[nH]c2cc(C(F)(F)F)c([C@H]3CCCO3)cc2c1=O)S(C)(=O)=O` [N—((R)-2,4-Dioxo-6-tetrahydro-furan-2-yl-7-trifluoromethyl-1,4-dihydro-2H-quinazolin-3-yl)-N-isobutyryl-methanesulfonamide], the responders at 50 mg/kg with OF1 mice stood at 0%.

As to `COC(=O)N(n1c(=O)[nH]c2cc(C(F)(F)F)c(-c3ccnn3C(C)C)cc2c1=O)S(C)(=O)=O` [[6-(2-Isopropyl-2H-pyrazol-3-yl)-2,4-dioxo-7-trifluoromethyl-1,4-dihydro-2H-quinazolin-3-yl]-methanesulfonyl-carbamic acid methyl ester], the responders at 50 mg/kg with OF1 mice is 0%.

Turning to `CCCCOC(=O)N(n1c(=O)[nH]c2cc(C(F)F)c(-c3ccnn3CC)cc2c1=O)S(C)(=O)=O` [[7-Difluoromethyl-6-(2-ethyl-2H-pyrazol-3-yl)-2,4-dioxo-1,4-dihydro-2H-quinazolin-3-yl]-methanesulfonyl-carbamic acid butyl ester], the responders at 50 mg/kg in the assay with OF1 mice was 0%.

In the case of `CCn1nccc1-c1cc2c(=O)n(N(C(=O)OC)S(C)(=O)=O)c(=O)[nH]c2cc1C(F)F` [[7-Difluoromethyl-6-(2-ethyl-2H-pyrazol-3-yl)-2,4-dioxo-1,4-dihydro-2H-quinazolin-3-yl]-methanesulfonyl-carbamic acid methyl ester], in the assay on OF1 mice, the responders at 50 mg/kg amounted to 0%.

As to `CCCCOC(=O)N(n1c(=O)[nH]c2cc(C(F)F)c(-c3ccnn3C(C)C)cc2c1=O)S(C)(=O)=O` [[7-Difluoromethyl-6-(2-isopropyl-2H-pyrazol-3-yl)-2,4-dioxo-1,4-dihydro-2H-quinazolin-3-yl]-methanesulfonyl-carbamic acid butyl ester], the responders at 50 mg/kg with OF1 mice came out at 0%.

Turning to `CC(C)COC(=O)N(n1c(=O)[nH]c2cc(C(F)F)c(-c3ccnn3C(C)C)cc2c1=O)S(C)(=O)=O` [[7-Difluoromethyl-6-(2-isopropyl-2H-pyrazol-3-yl)-2,4-dioxo-1,4-dihydro-2H-quinazolin-3-yl]-methanesulfonyl-carbamic acid isobutyl ester], in the assay with OF1 mice, the responders at 50 mg/kg came out at 0%.

For the compound `COC(=O)N(n1c(=O)[nH]c2cc(C(F)F)c(-c3ccnn3C(C)C)cc2c1=O)S(C)(=O)=O` [[7-Difluoromethyl-6-(2-isopropyl-2H-pyrazol-3-yl)-2,4-dioxo-1,4-dihydro-2H-quinazolin-3-yl]-methanesulfonyl-carbamic acid methyl ester], the responders at 50 mg/kg with OF1 mice is 0%.
